Measured values as given in US8314234B2, “Bicyclic pyrimidine kinase inhibitors” (Janssen Pharmaceutica N.V., priority 2006, dated 2012).
pIC50: −log10 of the molar value.

What was measured:
EGFR = molecular target: T1, EGFR (Homo sapiens, UniProt P00533); assay: EGFR Kinase Assay; assay type: biochemical
T1 construct: intracellular portion of EGFR started at nucleotide 2189 (corresponding to amino acid 667) and ended at the termination codon; made in house; host or cells: Sf9 insect cells (baculovirus)
Description: The EGFR kinase used was a fusion of Glutathione-S-Transferase (GST) and a PCR amplified intracellular portion of EGFR (NM_005228). The intracellular portion of EGFR started at nucleotide 2189 (corresponding to amino acid 667) and ended at the termination codon. The portion was PCR amplified with primers that added the lambda attB sequences to each end, recombined into an entry vector, then into a GST destination vector (as described in Gateway Technologies Manual by Invitrogen Corporation, Carlsbad, Calif.).
The destination vector was recombined in the DH10BAC strain of bacteria to produce a bacmid. The bacmid was transfected into Sf9 cells and the supernatant containing the baculovirus was collected. The GSTEGFR protein was purified using large cultures of Sf9 cells infected with stock virus. After an appropriate period of time, the cells were collected and lysed. The GSTEGFR was then purified from the lysate on Glutathione-Sepharose columns (as described by Amersham Biosciences, Buckinghamshire, United Kingdom).
The EGFR substrate was prepared by biotinylating polyGluTyr (128 mg) (Sigma, St. Louis, Mo.) in a 1×PBS buffer incubated together with a 12-fold molar excess of Sulfo-NHS-LC-Biotin on ice for at least 2 hrs. The free biotin was separated from the biotinylated polyGluTyr on a gel filtration column.
A mixture of a 10× kinase buffer (500 mM Tris at pH 8.0, 100 mM Magnesium Chloride and 1 mM Sodium Vanadate), DTT (1 mM final from 500 mM stock), ATP (5 μM final from 10 mM stock), biotinylated polyGluTyr (10 μg/μL stock), γ-^33P ATP (10 μCi/μL stock) and water was added to each well (90 μL/well) of a Streptavidin Flashplate (Perkin Elmer, Wellesley, Mass.).
Test compound in 100% DMSO (2 μL) was added to the appropriate wells. Diluted GSTEGFR (1:300 dilution in 50 mM Tris at pH 8.0 and 0.1% bovine serum albumin) (10 μL) was added to the wells to initiate the reactions.
The plates were incubated at 30° C. for 1 hr with shaking. The reacted contents were removed and the plates were sequentially washed three times with a 1×PBS stop buffer (300 μL without Magnesium and Calcium) and 100 mM EDTA. After the final wash, the same stop buffer (200 μL) was added to the wells. The plates were then sealed and read on the TopCount scintillation counter.
Test compounds were assayed in triplicate at 16 concentrations at half-log dilutions starting at 200 uM. A maximum and minimum signal for the assay was determined on each plate. The percent inhibition of a test compound was calculated according to the formula
For a series of test concentrations, the IC50 was derived by graphing percent inhibition against the log of the concentrations tested for a given compound. The percent inhibition results are shown in Table 1 at a test concentration of 2 μM. For those compounds with an IC50, the IC50 value is shown in parentheses.

CDK2 = molecular target: T2, CDK2 (Homo sapiens, UniProt P24941); assay: CDK-2 screening assay; assay type: biochemical
T2 construct: purchased Upstate Biotech, Lake Placid, N.Y
Protocol: (§1) 70 μL of the kinase reaction mixture was dispensed into the well of a streptavidin coated FlashPlate™ (Cat. #SMP103, NEN, Boston, Mass.).
(§2) Test compound stock in 100% DMSO (1 μL) was added to the wells resulting in a final concentration of 1% DMSO in the reaction with a 100 μL final reaction volume. Each enzyme was diluted in 50 mM Tris-HCl pH=8.0, 0.1% BSA and 30 μL was added to each well to initiate the reaction. The reaction was incubated for one hour at 30° C. At the end of the 1 hr incubation, the reaction was terminated by aspirating the mixture from the plate and washing the wells twice with PBS containing 100 mM EDTA. The biotinylated peptide substrate became immobilized on the Flashplate and the incorporation of ^33P-γ-ATP was measured by reading the plate on a scintillation counter. Inhibition of the enzymatic activity was measured by observing a reduced amount of ^33P-γ-ATP incorporated into the immobilized peptide.
The CDK2 enzyme in complex with cyclin A is commercially available (Upstate Biotech, Lake Placid, N.Y.).
(§3) A maximum and minimum signal for the assay was determined on each plate. The percent inhibition of a test compound was calculated according to the formula: […]
(§4) The term “ND” means “not determined.”

VEGFR2 = VEGFR2 (Rattus norvegicus, UniProt O08775); assay: VEGFR2 screening assay; assay type: biochemical
VEGFR2, sequence (O08775 786-1343): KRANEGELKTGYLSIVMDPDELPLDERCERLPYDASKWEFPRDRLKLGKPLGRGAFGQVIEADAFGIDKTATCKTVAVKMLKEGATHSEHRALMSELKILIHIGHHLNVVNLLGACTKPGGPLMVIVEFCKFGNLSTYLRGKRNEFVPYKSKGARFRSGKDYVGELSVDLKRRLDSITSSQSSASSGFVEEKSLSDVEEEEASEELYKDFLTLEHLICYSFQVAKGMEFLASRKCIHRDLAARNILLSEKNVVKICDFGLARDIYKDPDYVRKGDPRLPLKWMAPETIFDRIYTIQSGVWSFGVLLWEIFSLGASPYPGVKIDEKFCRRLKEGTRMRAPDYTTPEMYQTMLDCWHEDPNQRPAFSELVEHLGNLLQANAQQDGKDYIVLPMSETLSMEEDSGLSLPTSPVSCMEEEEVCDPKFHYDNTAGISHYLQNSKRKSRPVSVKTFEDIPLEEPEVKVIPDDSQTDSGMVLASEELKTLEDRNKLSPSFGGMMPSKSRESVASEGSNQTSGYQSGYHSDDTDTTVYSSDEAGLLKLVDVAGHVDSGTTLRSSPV
Protocol: A kinase reaction mixture was prepared containing 50 mM Tris-HCl pH=8, 10 mM MgCl2, 0.1 mM […], 1 mM DTT, 10 μM ATP, 0.025 μM biotinylated histone-H1 peptide substrate and 0.2 μCuries per well ^33P-γ-ATP (2000-3000 Ci/mmol). 70 μL of the kinase reaction mixture was dispensed into the well of a streptavidin coated FlashPlate™ (Cat. #SMP103, NEN, Boston, Mass.).
as §2
The VEGF-R2 enzyme is a fusion protein containing a polyhistidine tag at the N terminus followed by amino acids 786 to 1343 of the rat VEGF-R2 kinase domain (Accession number U93306). The assay used 150 ng of the N-terminal biotinylated peptide biotin-[…]-amide SEQ ID NO: 2) (VEGF-R2) per well.
as §3
For a series of test concentrations, the IC50 was derived by graphing percent inhibition against the log of the concentrations tested for a given compound with results shown in Table 2. For those compounds without an IC50, the inhibition values in percent are shown at a test concentration of 2 μM. The term “ND” means “not determined.”

CDK1 = molecular target: T3, CDK1 (Homo sapiens, UniProt P06493); assay: CDK-1 screening assay; assay type: biochemical
T3 construct: purchased New England Biolabs, Beverly, Mass; 6020; host or cells: insect cells
T3 sequence (P06493 whole entry): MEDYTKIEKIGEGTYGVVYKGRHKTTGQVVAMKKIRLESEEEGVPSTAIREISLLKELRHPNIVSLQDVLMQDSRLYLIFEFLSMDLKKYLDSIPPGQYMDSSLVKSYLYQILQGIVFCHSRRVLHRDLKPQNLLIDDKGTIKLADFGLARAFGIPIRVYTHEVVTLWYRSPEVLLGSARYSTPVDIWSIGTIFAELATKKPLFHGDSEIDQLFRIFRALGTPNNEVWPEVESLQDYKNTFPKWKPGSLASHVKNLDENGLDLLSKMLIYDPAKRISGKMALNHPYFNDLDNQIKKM
T3 sequence (P14635 whole entry partner): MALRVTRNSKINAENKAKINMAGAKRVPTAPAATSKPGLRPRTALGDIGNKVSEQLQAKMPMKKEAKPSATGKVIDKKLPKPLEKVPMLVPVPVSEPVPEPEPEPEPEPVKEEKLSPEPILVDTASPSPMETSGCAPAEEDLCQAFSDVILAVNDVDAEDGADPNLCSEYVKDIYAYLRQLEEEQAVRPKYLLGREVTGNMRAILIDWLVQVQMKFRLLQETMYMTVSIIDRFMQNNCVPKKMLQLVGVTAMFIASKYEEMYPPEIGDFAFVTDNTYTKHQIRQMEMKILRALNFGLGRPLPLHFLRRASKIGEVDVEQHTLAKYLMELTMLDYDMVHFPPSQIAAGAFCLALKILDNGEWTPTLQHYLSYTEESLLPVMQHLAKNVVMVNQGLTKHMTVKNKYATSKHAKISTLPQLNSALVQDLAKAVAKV
Protocol: as §1, §2, §3, §4

HCT-116 colon carcinoma = assay: Cell Proliferation Inhibition Assay (14C-thymidine incorporation), HCT-116; assay type: cell-based; settings: Homo sapiens
Description: (§5) The ability of a test compound to inhibit unregulated cell proliferation may be determined by measuring incorporation of ^14C-labelled thymidine into newly synthesized DNA within cell lines derived from carcinomas originating from several tissues. Accordingly, the anti-proliferative effect of a compound on cells with a variety of phenotypes may be determined.
(§6) Carcinoma cell lines include those such as HeLa cervical adenocarcinoma (American Type Culture Collection (ATCC), Virginia, Cat. #CCL-2), A375 malignant melanoma (ATCC CRL-1619), SK-OV-3 ovarian adenocarcinoma (ATCC HTB-77), HCT-116 colon carcinoma (CCL-247), PC-3 prostate adenocarcinoma (ATCC CRL-1435), and MDA-MB-231 (Xenogen Corp.)
(§7) The carcinoma cells are trypsinized and counted. The cells (3000-8000 count) are added to each well of a 96-well CytoStar tissue culture treated scintillating microplate (Amersham #RPNQ0160) in complete medium (100 μL) and the plate is then incubated in complete medium for 24 hrs at 37° C. in an inert atmosphere containing 5% CO2. Test compound (1 μL) in 100% DMSO is added to the plate test-wells with DMSO only added to control-wells. The plate is incubated in complete medium for a second 24 hr period at 37° C. in an atmosphere containing 5% CO2.
(§8) An aliquot of a solution of Methyl ^14C-thymidine (56 mC/mmol) (NEN #NEC568 or Amersham #CFA532) and complete medium (20 uL to provide 0.2 μCi/well) is then added to each well and the plate is incubated for a third 24 hr period at 37° C. in an atmosphere containing 5% CO2. The plate contents are then discarded, the plate is washed twice with PBS (200 μL) and then PBS (200 μL) is added to each well. The plate is sealed and the degree of methyl ^14C-thymidine incorporation is quantified on a Packard Top Count.

[1] = tested on: HeLa cervical adenocarcinoma; assay: Cell Proliferation Inhibition Assay (14C-thymidine incorporation), HeLa; assay type: cell-based; settings: Homo sapiens
Description: as §5, §6, §7, §8

A375 malignant melanoma = assay: Cell Proliferation Inhibition Assay (14C-thymidine incorporation), A375; assay type: cell-based; settings: Homo sapiens, A-375
Description: as §5, §6, §7, §8

| Compound | pIC50 (CDK2) | pIC50 (VEGFR2) | pIC50 (CDK1) | pIC50 (HCT-116 colon carcinoma) | pIC50 [1] | pIC50 (A375 malignant melanoma) | inhibition at 2 µM (EGFR; test concentration of 2 μM) [%] | pIC50 (EGFR; read-out: EGFR IC50 (value in parentheses)) | EGFR Inhibition (%) (EGFR; test concentration of 2 μM) |
| --- | --- | --- | --- | --- | --- | --- | --- | --- | --- |
| 4-[6-(1H-indazol-5-ylamino)-1H-pyrazolo[3,4-d]pyrimidin-4-ylamino]-benzenesulfonamide [Cpd 4] | 6.82 | 5.94 | 6.28 |  |  |  |  |  | 65 |
| NS(=O)(=O)c1ccc(Nc2nc(Nc3ccc(S(N)(=O)=O)cc3)c3cn[nH]c3n2)cc1 [Cpd 1, N^4,N^6-bis-[4-(amino-sulfonyl)-phenyl]-1H-pyrazolo[3,4-d]pyrimidine-4,6-diamine] | 7.68 | 5.30 | 6.88 | 5.31 | 4.00 | 4.00 |  |  |  |
| NS(=O)(=O)c1ccc(Nc2nc(NCc3ccccc3)c3cn[nH]c3n2)cc1 [Cpd 2, 4-(4-benzylamino-1H-pyrazolo[3,4-d]pyrimidin-6-ylamino)-benzenesulfonamide] | 5.80 | 4.70 | 5.15 |  |  |  |  |  |  |
| CC(C)C(CO)Nc1nc(Nc2ccc(S(=O)(=O)NCCO)cc2)nc2[nH]ncc12 (centres unmarked) [Cpd 14, N-(2-hydroxy-ethyl)-4-[4-(1-hydroxymethyl-2-methyl-propylamino)-1H-pyrazolo[3,4-d]pyrimidin-6-ylamino]-benzenesulfonamide] | 5.48 | 4.12 | 4.92 | 4.82 | 4.00 | 4.00 |  |  |  |
| NS(=O)(=O)c1ccc(Nc2nc(OCC3CCCCC3)c3cn[nH]c3n2)cc1 [Cpd 23, 4-(4-cyclohexylmethoxy-1H-pyrazolo[3,4-d]pyrimidin-6-ylamino)-benzenesulfonamide] |  | < 5.00 |  | 4.78 | 4.74 | 4.96 |  |  |  |
| c1cc(N2CCNCC2)ccc1Nc1nc(OCC2CCCCC2)c2cn[nH]c2n1 [Cpd 24, (4-cyclohexylmethoxy-1H-pyrazolo[3,4-d]pyrimidin-6-yl)-(4-piperazin-1-yl-phenyl)-amine] | < 4.00 | < 4.00 | < 4.00 |  |  |  |  |  |  |
| c1ccc(Nc2nc(OCC3CCCCC3)c3cn[nH]c3n2)cc1 [Cpd 25, (4-cyclohexylmethoxy-1H-pyrazolo[3,4-d]pyrimidin-6-yl)-phenyl-amine] | < 5.00 | < 5.00 | < 4.00 |  |  |  |  |  |  |
| O=S(=O)(NCCN1CCOCC1)c1ccc(Nc2nc(OCC3CCCCC3)c3cn[nH]c3n2)cc1 [Cpd 27, 4-(4-cyclohexylmethoxy-1H-pyrazolo[3,4-d]pyrimidin-6-ylamino)-N-(2-morpholin-4-yl-ethyl)-benzenesulfonamide] |  | 5.35 | 6.08 | 4.95 | 4.71 | 5.12 |  |  |  |

Second part, led by results:

| pIC50 (CDK2) | pIC50 (VEGFR2) | pIC50 (CDK1) | pIC50 (HCT-116 colon carcinoma) | pIC50 [1] | pIC50 (A375 malignant melanoma) | inhibition at 2 µM (EGFR; test concentration of 2 μM) [%] | pIC50 (EGFR; read-out: EGFR IC50 (value in parentheses)) | Compound | EGFR Inhibition (%) (EGFR; test concentration of 2 μM) |
| --- | --- | --- | --- | --- | --- | --- | --- | --- | --- |
| 5.95 | 5.37 | 5.63 |  |  |  | 40 |  | NS(=O)(=O)c1ccc(Nc2nc(Nc3ccccc3)nc3[nH]ncc23)cc1 [Cpd 6, 4-(6-phenylamino-1H-pyrazolo[3,4-d]pyrimidin-4-ylamino)-benzenesulfonamide] |  |
| 6.86 | 6.00 | 6.99 | 4.00 | 4.00 | 4.00 |  |  | O=S(=O)(NCCO)c1ccc(Nc2nc(Nc3ccc4[nH]ncc4c3)c3cn[nH]c3n2)cc1 [Cpd 11, N-(2-hydroxy-ethyl)-4-[4-(1H-indazol-5-ylamino)-1H-pyrazolo[3,4-d]pyrimidin-6-ylamino]-benzenesulfonamide] |  |
| 6.74 | 6.00 | 6.00 | 4.82 | 4.00 | 4.00 |  |  | O=S(=O)(NCCO)c1ccc(Nc2nc(Nc3ccc4[nH]ncc4c3)c3cnoc3n2)cc1 [Cpd 15, N-(2-hydroxy-ethyl)-4-[4-(1H-indazol-5-ylamino)-isoxazolo[5,4-d]pyrimidin-6-ylamino]-benzenesulfonamide] |  |
| 6.00 | 6.00 | 5.30 | 5.07 | 4.88 | 5.09 |  |  | c1nc2ccc(Nc3nc(Nc4ccc5ncsc5c4)c4cn[nH]c4n3)cc2s1 [Cpd 16, N^4,N^6-bis-benzothiazol-6-yl-1H-pyrazolo[3,4-d]pyrimidine-4,6-diamine] |  |
|  | 6.00 | 6.32 | 4.00 | 4.00 | 4.00 | 66.7 | 6.70 | NS(=O)(=O)c1cccc(Nc2nc(Nc3cccc(S(N)(=O)=O)c3)c3cn[nH]c3n2)c1 [Cpd 22, N^4,N^6-bis-[3-(amino-sulfonyl)-phenyl]-1H-pyrazolo[3,4-d]pyrimidine-4,6-diamine] |  |
|  | 5.63 | 6.57 | 5.30 | 5.34 | 5.07 |  |  | O=S(=O)(NCCO)c1ccc(Nc2nc(OCC3CCCCC3)c3cn[nH]c3n2)cc1 [Cpd 26, 4-(4-cyclohexylmethoxy-1H-pyrazolo[3,4-d]pyrimidin-6-ylamino)-N-(2-hydroxy-ethyl)-benzenesulfonamide] |  |
